The text below walks through data of patent US6649568B2, “Brassinosteroid biosynthesis inhibitor” (Riken, priority 2000, dated 2003).

In experiment [1] the test system is elongation of cress lower hypocotyl. In words: Inhibition of elongation of cress lower hypocotyl, with rescue by brassinolide or gibberellin. The experiment is classed as in vivo. Conditions: FIG. 2. Here is the method: Surfaces of cress seeds purchased were sterilized with 1% NaOCl solution for 20 minutes and washed 5 times with distilled water. The resulting cress seeds were sown on 1% agar-solidified medium (containing 0.5×Murashige and Skoog salts and 1.5% sucrose in Agripot (Kirin Brew Co., Tokyo)). The plants was grown in a growth chamber kept at 25[…] under a cycle of 16 hour light (240 μEm-2s-1) and 8 hour dark conditions. […] The inhibitory effect of the compound of the present invention against elongation of cress lower hypocotyl was suppressed by addition of blassinolide, whilst not suppressed by addition of gibberellin (FIG. 1).

Experiment [2] relates to brassinosteroid biosynthesis. Conditions: reported in Japanese Patent Application No. 10-227939; cited from earlier work.

`C=CCC(O)(c1ccccc1)C(Cc1ccc(Cl)cc1)n1cncn1` (centres unmarked) [Brz2001, 6-(4-Chlorophenyl)-4-phenyl-5-(1,2,4-triazoyl)hexen-1-en-4-ol]: the “inhibitory action against brassinosteroid biosynthesis, comparison with Brz91” value in experiment [1] is “inhibitory action”.
As for `CC(O)(c1ccccc1)C(Cc1ccc(Cl)cc1)c1nc[nH]n1` (centres unmarked) [Brz91, 4-(4-chlorophenyl)-2-phenyl-3-(1,2,4-triazolyl)butan-2-ol], the “inhibitory action against the brassinosteroid biosynthesis” value in experiment [2] was “had the desired inhibitory action”.
